{
  "source": "patent US20090123581A1",
  "about": "“COLLAGEN CROSS-LINKING AGENTS ON DENTAL RESTORATIVE TREATMENT AND PREVENTIVE DENTISTRY” (THE BOARD OF TRUSTEES OF THE UNIVERSITY OF ILLINOIS, priority 2006, published 2009)",
  "key": {"[1]": {"test": "UTS of demineralized crown dentin tested parallel and perpendicular to dentinal tubules (Example 4)", "conditions": "1 hour", "description": "Specific synthetic and natural chemicals may increase the number of collagen cross-links within tooth dentin. To evaluate the effects of two cross-linking agents of different concentrations on the UTS of demineralized crown dentin tested parallel and perpendicular to dentinal tubules, the experiment described below was performed. FIG. 6 illustrates the steps of specimen preparation and treatment.\nTwenty sound molars were sectioned into 0.5±0.1 mm thick slabs that were further trimmed to 0.5±0.1 mm according to the tubule orientation (parallel-PR or perpendicular-PE). Specimens were demineralized with 10% phosphoric acid and divided into 10 groups according to treatment: control (water solution)/PR; control/PE, 6.5% proanthocyanidin (PA)/PR, 6.5% PA/PE; 0.65% PA/PR; 0.65% PA/PE; 25% glutaraldehyde (GD)/PR; 25% GD/PE; 5% GD/PR; 5% GD/PE. Specimens were kept in their respective solutions for 1 hour. To assess UTS, specimens were subjected to tensile forces at a crosshead speed of 1 mm/min. Statistical analysis was performed using two-way ANOVA and Fisher's PLSD test (p<0.05)."}, "[2]": {"test": "Ultimate tensile strength (UTS) of demineralized dentin after cross-linker treatment (Example 1)", "set-up": "species or system human", "conditions": "for Ultimate tensile strength, mean: pH 7.4", "text": "Fixation Processes: Ten sound freshly extracted human molars were used in this study. The teeth were thawed, cleaned of adhering soft tissues, and the occlusal surfaces were ground flat with #320 grit Silicon Carbide paper under running water to remove part of the enamel. Flattening of the occlusal surface by removal of the cusps enables accurate sectioning of samples in beam shape. Teeth were sectioned into 0.5±0.1 by 0.5±0.1 mm thick beams (n=20 beams per tooth) with a slow speed diamond wafering blade (Buehler-Series 15LC Diamond, Lake Bluff, Ill., USA) under constant water coolant (FIG. 1A).\nThe slabs were randomly divided into two groups: 1) undemineralized dentin and 2) demineralized dentin (FIG. 1A). In Group 2, dentin beams were immersed in 10% phosphoric acid solution (Fisher Scientific, New Jersey, N.J.) for a period of 5 hours. X-rays were taken from the specimens to verify complete tissue demineralization. Specimens were thoroughly rinsed with distilled water for 10 minutes to remove any residue of the phosphoric acid.\nSpecimens from groups 1 and 2 were subdivided according to the dentin treatment (FIG. 1B). In Treatment A, specimens were immersed in PBS solution (pH: 7.4) as a control. In Treatment B, specimens were immersed in 0.5% Proanthocyanidin (MegaNatural—Polyphenolics Ind.) PBS solution (PA) at a pH of 7.4. In Treatment C, specimens were immersed in 0.625% Genipin (Wako Pure Chemical Ind.) PBS solution (GE) at a pH of 7.4. In Treatment D, specimens were immersed in 5% glutaraldehyde solution (GD) (Fisher Scientific, New Jersey, N.J.) at a pH of 7.4. Specimens were kept in their respective solutions for 4 and 40 hours at room temperature. After the incubation periods, specimens were thoroughly rinsed with distilled and deionized water to remove any remains of cross-linking agents and buffer.\nUTS testing: For UTS evaluation, the specimens were glued with a cyanoacrylate adhesive (Zapit—Dental Ventures of America Inc., Corona, Calif.) to a Ciucchi's jig, which was mounted on a universal testing machine (EZ Test, Shimazu Co., Kyoto, Japan) and subjected to microtensile testing at a crosshead speed of 1 mm/min (FIG. 1C). Means and standard deviations were calculated and expressed in microtensile bond strengths (MPa). Statistical analysis was performed using a two-way ANOVA and Fisher's PLSD tests (p<0.05)."}, "[3]": {"test": "Microtensile bond strength of adhesive restoration to caries-affected dentin (Example 2)", "set-up": "species or system human", "conditions": "caries-affected demineralized dentin; 5% glutaraldehyde for 5 minutes; versus control", "description": "Effect of an exogenous collagen cross-linking agent on dentin bonding: In order to analyze the contribution of exogenous collagen cross-linking to sound and caries-affected dentin bonding, demineralized dentin surfaces were treated with 5% glutaraldehyde and the restored specimens were subjected to microtensile bond strength testing.\nSpecimen preparation: Six human molars stored frozen (−20° C.) for less then one month were used. The teeth presented occlusal caries in which enamel was visually intact. The teeth were thawed, cleaned of adhering soft tissues, and the occlusal surfaces were ground flat with #320 and #600 grit Silicon Carbide (Sic) papers under running water to remove the enamel and expose flat middle dentin, respectively. […]\nMicrotensile bond test (MTB): After 24 hrs in water at 37° C., the teeth were sectioned into 0.7±0.2 mm thick slabs, and the interfaces trimmed to an hourglass shape using a fine diamond bur to produce a cross-sectional area of 1 mm^2. The thickness of the slabs and the width of the trimmed surface were measured using a digital caliper (Fisher Scientific, New Jersey, N.J.) and specimens in sound and caries-affected dentin were obtained. […] MPa were determined by dividing the fracture load by the cross-sectional area of the interface."}},
  "data": [
    {"smiles": "O=CCCCC=O", "note": "[GD, glutaraldehyde]", "values": [
      {"measurement": "UTS", "setting": "[1]; 5% GD, tested Parallel to dentinal tubules", "value": "9.8 ± 1.5^BCD,b MPa"},
      {"measurement": "UTS", "setting": "[1]; 5% GD, tested Perpendicular to dentinal tubules", "value": "15.7 ± 4.9^BCD,a MPa"},
      {"measurement": "UTS", "setting": "[1]; 25% GD, tested Parallel to dentinal tubules", "value": "10.7 ± 2.7^B,b MPa"},
      {"measurement": "UTS", "setting": "[1]; 25% GD, tested Perpendicular to dentinal tubules", "value": "18.6 ± 5.7^B,a MPa"},
      {"measurement": "Ultimate tensile strength, mean", "setting": "[2]; 4 hours in 0.5% PA, 0.625% GE or 5% GD", "value": 13.1, "unit": "MPa"},
      {"measurement": "Ultimate tensile strength, mean", "setting": "[2]; 40 hours in 0.5% PA, 0.625% GE or 5% GD", "value": 9.1, "unit": "MPa"},
      {"measurement": "Ultimate tensile strength, pooled data", "setting": "[2]; pooled over 4 and 40 hours, 0.5% PA, 0.625% GE or 5% GD", "value": 11.1, "unit": "BC MPa"},
      {"measurement": "UTS values compared to the control group (statistics)", "setting": "[2]; two-way ANOVA, Fisher's PLSD", "value": "no statistically significant differences"},
      {"measurement": "increase in the bond strength values", "setting": "[3]", "value": 35, "unit": "%"}
    ]}
  ]
}
